Laboratory results reported in patent US6608086B2, “Dihydropyridines and new uses thereof” (Synaptic Pharmaceutical Corporation, priority 1993, dated 2003).
Read-outs that look alike come from different tables or passages of the source.

Experiments:
L-type calcium channel = target: T1, L-type calcium channel (Rattus norvegicus, UniProt P22002); test: Competition binding of [3H]nitrendipine to membrane fragments of rat cardiac muscle
T1 construct: membrane fragments of rat cardiac muscle; from tissue; host or cells: rat cardiac muscle membranes

[1] = [3H]nitrendipine, rat cardiac muscle membranes, SEM and n in lines below, read-out: pKi Ca (converted)
[2] = [3H]nitrendipine, rat cardiac muscle membranes, mean, read-out: PKi Ca (converted)

T1 sequence (P22002 whole entry, other chains not shown, the tested form may be a part): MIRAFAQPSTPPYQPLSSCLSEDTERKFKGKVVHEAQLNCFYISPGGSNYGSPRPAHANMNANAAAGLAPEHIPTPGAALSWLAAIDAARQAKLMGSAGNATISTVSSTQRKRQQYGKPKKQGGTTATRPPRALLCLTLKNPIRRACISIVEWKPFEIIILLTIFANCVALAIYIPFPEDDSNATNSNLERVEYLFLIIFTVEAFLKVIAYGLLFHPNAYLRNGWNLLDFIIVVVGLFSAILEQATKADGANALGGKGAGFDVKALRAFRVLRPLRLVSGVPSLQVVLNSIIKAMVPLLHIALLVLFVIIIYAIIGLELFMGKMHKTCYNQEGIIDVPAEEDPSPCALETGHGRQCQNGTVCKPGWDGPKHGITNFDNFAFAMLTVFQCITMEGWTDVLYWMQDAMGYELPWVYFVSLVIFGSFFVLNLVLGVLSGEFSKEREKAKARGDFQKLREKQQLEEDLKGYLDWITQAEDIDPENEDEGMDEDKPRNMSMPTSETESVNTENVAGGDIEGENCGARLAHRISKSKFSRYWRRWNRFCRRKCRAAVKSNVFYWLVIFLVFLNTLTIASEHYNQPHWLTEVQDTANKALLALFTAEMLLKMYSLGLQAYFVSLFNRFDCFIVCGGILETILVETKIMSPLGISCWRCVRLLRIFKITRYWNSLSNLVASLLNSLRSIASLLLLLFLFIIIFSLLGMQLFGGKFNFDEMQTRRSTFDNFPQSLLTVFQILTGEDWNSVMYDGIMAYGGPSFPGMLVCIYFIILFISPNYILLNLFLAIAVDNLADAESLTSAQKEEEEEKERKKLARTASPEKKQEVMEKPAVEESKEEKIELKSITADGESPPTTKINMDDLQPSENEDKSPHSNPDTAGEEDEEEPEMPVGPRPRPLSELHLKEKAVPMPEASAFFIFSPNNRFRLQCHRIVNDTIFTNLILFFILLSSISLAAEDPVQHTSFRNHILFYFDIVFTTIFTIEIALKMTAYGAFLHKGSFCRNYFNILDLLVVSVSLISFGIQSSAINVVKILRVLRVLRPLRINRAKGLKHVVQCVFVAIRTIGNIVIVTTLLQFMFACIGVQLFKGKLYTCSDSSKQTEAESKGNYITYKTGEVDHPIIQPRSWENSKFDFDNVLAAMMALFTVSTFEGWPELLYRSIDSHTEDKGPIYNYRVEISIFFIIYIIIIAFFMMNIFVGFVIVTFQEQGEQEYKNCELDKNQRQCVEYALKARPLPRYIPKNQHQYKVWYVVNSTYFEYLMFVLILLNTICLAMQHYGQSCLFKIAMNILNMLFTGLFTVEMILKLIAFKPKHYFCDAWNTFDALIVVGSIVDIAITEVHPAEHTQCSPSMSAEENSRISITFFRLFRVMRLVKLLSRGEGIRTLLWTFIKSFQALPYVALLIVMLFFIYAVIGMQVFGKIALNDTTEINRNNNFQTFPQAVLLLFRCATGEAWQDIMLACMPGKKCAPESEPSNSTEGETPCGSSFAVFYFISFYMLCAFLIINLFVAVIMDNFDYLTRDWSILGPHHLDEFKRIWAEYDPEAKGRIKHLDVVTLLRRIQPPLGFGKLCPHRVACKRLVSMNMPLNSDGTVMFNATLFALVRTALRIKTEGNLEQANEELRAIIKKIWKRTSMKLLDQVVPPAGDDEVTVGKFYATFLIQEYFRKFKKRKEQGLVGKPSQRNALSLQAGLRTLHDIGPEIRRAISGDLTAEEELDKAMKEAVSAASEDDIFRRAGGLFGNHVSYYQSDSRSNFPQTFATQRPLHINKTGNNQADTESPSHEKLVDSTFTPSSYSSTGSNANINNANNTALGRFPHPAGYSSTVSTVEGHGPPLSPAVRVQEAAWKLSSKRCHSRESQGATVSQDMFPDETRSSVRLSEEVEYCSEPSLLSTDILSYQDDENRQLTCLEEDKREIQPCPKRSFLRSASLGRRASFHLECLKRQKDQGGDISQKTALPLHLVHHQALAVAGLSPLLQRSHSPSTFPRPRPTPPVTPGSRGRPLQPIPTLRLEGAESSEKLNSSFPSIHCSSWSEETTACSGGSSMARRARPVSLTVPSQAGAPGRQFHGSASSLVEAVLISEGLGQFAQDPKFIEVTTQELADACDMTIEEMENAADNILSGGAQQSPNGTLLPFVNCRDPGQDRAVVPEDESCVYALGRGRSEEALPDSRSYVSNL
T1 sequence (P54290 25-944 partner limits assumed, other chains not shown): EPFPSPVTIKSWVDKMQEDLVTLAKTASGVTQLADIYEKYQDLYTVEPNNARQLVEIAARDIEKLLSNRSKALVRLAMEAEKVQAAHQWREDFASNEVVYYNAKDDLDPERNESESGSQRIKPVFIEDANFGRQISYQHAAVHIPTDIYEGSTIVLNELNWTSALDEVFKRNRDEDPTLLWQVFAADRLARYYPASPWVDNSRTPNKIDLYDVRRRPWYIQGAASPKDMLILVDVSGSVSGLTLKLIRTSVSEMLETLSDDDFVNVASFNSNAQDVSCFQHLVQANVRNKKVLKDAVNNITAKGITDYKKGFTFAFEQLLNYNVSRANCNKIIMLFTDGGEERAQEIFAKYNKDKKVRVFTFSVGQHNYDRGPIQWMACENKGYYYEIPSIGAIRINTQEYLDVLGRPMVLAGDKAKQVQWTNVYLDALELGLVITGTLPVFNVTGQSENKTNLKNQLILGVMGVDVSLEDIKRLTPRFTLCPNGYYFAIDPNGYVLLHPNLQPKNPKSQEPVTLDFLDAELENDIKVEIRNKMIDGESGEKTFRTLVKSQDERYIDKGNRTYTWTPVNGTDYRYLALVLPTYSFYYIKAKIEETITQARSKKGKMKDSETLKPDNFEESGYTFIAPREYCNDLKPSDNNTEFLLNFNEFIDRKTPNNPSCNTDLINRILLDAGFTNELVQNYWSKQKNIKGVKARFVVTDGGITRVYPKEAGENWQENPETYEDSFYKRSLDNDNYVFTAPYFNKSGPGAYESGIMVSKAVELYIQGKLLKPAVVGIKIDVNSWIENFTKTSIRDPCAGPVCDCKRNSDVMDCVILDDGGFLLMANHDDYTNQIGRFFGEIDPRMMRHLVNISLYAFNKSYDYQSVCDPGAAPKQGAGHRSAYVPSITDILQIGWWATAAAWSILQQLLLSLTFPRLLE
T1 sequence (P54290 945-1091 partner limits assumed, other chains not shown): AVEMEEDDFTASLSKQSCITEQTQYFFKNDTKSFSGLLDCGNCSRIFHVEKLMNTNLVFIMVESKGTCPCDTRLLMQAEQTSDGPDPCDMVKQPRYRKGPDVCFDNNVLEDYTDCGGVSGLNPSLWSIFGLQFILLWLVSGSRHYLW

Row | Structure (SMILES) | melting point | Ki (L-type calcium channel; PKi Ca) [µM] | further results
1 | CCNC(=O)C1=C(CC)NC(COCCN)=C(C(=O)NCCCN2CCC(C(=O)OC)(c3ccccc3)CC2)C1c1ccc([N+](=O)[O-])cc1 (centres unmarked) [Example 233, 2-((2-Aminoethyl)oxy)methyl-6-ethyl-5-N-ethylcarboxamido-1,4-dihydro-3-(N-(3-(4-methoxycarbonyl-4-phenylpiperidin-1-yl)propyl))carboxamido-4-(4-nitro)phenylpyridine] | 112 °C (dec.) | 0.257 | 
2 | CC1=C(C(N)=O)C(c2ccc([N+](=O)[O-])cc2)C(C(=O)NCCCN2CCC(c3ccccc3)CC2)=C(C)N1 (centres unmarked) [Example 60, 5-Carboxamido-1,4-dihydro-2,6-dimethyl-4-(4-nitrophenyl)-3-{N-[3-(4-phenylpiperidin-1-yl)propyl]}carboxamidopyridine] | 100 to 105 °C |  | Ki (L-type calcium channel; [1]): 158 µM
3 | CC1=C(C(N)=O)C(c2ccc([N+](=O)[O-])cc2)C(C(=O)NCCCN2CCC(C(=O)O)(c3ccccc3)CC2)=C(C)N1 (centres unmarked) [Example 210, 5-Carboxamido-3-{N-[3-(4-carboxy-4-phenylpiperidin-1-yl)propyl]}carboxamido-1,4-dihydro-2,6-dimethyl-4-(4-nitrophenyl)pyridine] | 208 to 210 °C | 0.933 | 
4 | COC(=O)C1=C(C)NC(C)=C(C(=O)NCCCN2CCC(c3ccccc3)CC2)C1c1cccc([N+](=O)[O-])c1 (centres unmarked) [Example 30, 1,4-Dihydro-3-methoxycarbonyl-2,6-dimethyl-4-(3-nitrophenyl)-5-(N-(3-(4-phenylpiperidin-1-yl)propyl)carboxamido)pyridine] | 78 to 80 °C |  | Ki (L-type calcium channel; [1]): 0.0955 µM
5 | COC(=O)C1=C(C)NC(CCCCN)=C(C(=O)NCCCN2CCC(c3ccccc3)(c3ccccc3)CC2)C1c1ccc([N+](=O)[O-])cc1 (centres unmarked) [Example 170, 2-(4-Aminobutyl)-1,4-dihydro-5-methoxycarbonyl-6-methyl-4-(4-nitrophenyl)-3-{N-[3-(4,4-diphenylpiperidin-1-yl)propyl]}carboxamidopyridine] | 89 to 93 °C | 2.4 | 
6 | COC(=O)C1(c2ccccc2)CCN(CCCNC(=O)C2=C(CCCCN)NC(C)=C(C(N)=O)C2c2ccc([N+](=O)[O-])cc2)CC1 (centres unmarked) [Example 177, 2-(4-Aminobutyl)-5-carboxamido-1,4-dihydro-3-{N-[3-(4-methoxycarbonyl-4-phenylpiperidin-1-yl)propyl]}carboxamido-6-methyl-4-(4-nitrophenyl)pyridine] | 81 to 84 °C | 93.3 | 
7 | CCOC(=O)C1(c2ccccc2)CCN(CCCNC(=O)C2=C(COCCN)NC(CC)=C(C(=O)OC)C2c2ccc([N+](=O)[O-])cc2)CC1 (centres unmarked) [Example 197, 2-[(2-Aminoethoxy)methyl]-3-{N-[3-(4-ethoxycarbonyl-4-phenylpiperidin-1-yl)propyl]}carboxamido-1,4-dihydro-6-ethyl-5-methoxycarbonyl-4-(4-nitrophenyl) pyridine] | 45 to 47 °C | 6.31 | 
8 | CCC1=C(C(N)=O)C(c2ccc([N+](=O)[O-])cc2)C(C(=O)NCCCN2CCC(c3ccccc3)CC2)=C(CC)N1 (centres unmarked) [Example 121, 5-Carboxamido-2,6-diethyl-1,4-dihydro-4-(4-nitrophenyl)-3-{N-[3-(4-phenylpiperidin-1-yl)propyl]}carboxamidopyridine] | 90 to 101 °C |  | Ki (L-type calcium channel; [3H]nitrendipine, rat cardiac muscle membrane fragments, L-type calcium channel, read-out: pKi Ca (converted)): 16.6 µM
9 | COC(=O)C1=C(C)NC(C)=C(C(=O)NCCCN2CCC(c3ccccc3)(c3ccccc3)CC2)C1c1cccc([N+](=O)[O-])c1 (centres unmarked) [Example 249, 1,4-Dihydro-3-methoxycarbonyl-2,6-dimethyl-4-(3-nitrophenyl)-5-(N-(3-(4,4-diphenylpiperidin-1-yl)propyl)carboxamido)-pyridine] | 192 to 193 °C | 0.0309 | 
10 | CCC1=C(C(=O)NC)C(c2ccc([N+](=O)[O-])cc2)C(C(=O)NCCCN2CCC(c3ccccc3)(c3ccccc3)CC2)=C(COCCN)N1 (centres unmarked) [Example 225, 2-((2-Aminoethyl)oxy)methyl-6-ethyl-1,4-dihydro-5-N-methylcarboxamido-4-(4-nitro)phenyl-3-(3-(N-(4,4-diphenylpiperidin-1-yl)propyl))carboxamidopyridine] | 115 °C (dec.) | 2.57 | 
11 | CC1=C(C(=O)NCCCN2CCC(c3ccccc3)(c3ccccc3)CC2)C(c2ccc([N+](=O)[O-])cc2)C(C(=O)N(C)C)=C(C)N1 (centres unmarked) [Example 39, 1,4-Dihydro-2,6-dimethyl-3-(N,N-dimethyl) carboxamido-4-(4-nitrophenyl)-5-{N-[3-(4,4-diphenylpiperidin-1-yl)propyl]}carboxamidopyridine] | 135 °C |  | Ki (L-type calcium channel; [1]): 44.7 µM
12 | CCC1=C(C(=O)NC)C(c2ccc([N+](=O)[O-])cc2)C(C(=O)NCCCN2CCC(C(=O)OC)(c3ccccc3)CC2)=C(COCCN)N1 (centres unmarked) [Example 229, 2-((2-Aminoethyl)oxy)methyl-6-ethyl-1,4-dihydro-3-(N-(3-(4-methoxycarbonyl-4-phenylpiperidin-1-yl)propyl))carbo xamido-5-N-methylcarboxamido-4-(4-nitro)phenylpyridine] | 95 °C (dec.) |  | Ki (L-type calcium channel; [2]): 100 µM
13 | COC(=O)C1=C(C)NC(C)=C(C(=O)NCCCN2CCC(c3ccccc3)CC2)C1c1ccc2c(c1)OCO2 (centres unmarked) [Example 250] | 161 to 165 °C |  | Ki (L-type calcium channel; [3H]nitrendipine, rat cardiac muscle membranes, L-type calcium channel, read-out: PKi Ca (converted)): 13.2 µM
14 | CCC1=C(C(=O)OC)C(c2ccc([N+](=O)[O-])cc2)C(C(=O)NCCCN2CCC(C(=O)OC)(c3ccccc3)CC2)=C(COCCN)N1 (centres unmarked) [Example 235, 2-((2-Aminoethyl)oxy)methyl-6-ethyl-1,4-dihydro-5-methoxycarbonyl-3-(N-(3-(4-methoxycarbonyl-4-phenylpiperidin-1-yl)propyl))carboxamido-4-(4-nitro)phenylpyridine] | 140 °C (dec.) | 166 | 
15 | COC(=O)C1=C(C)NC(C)=C(C(=O)NCCCN2CCC(c3ccccc3)CC2)C1c1ccc(Cl)c([N+](=O)[O-])c1 (centres unmarked) [Example 17, 4-(4-Chloro-3-nitrophenyl)-1,4-dihydro-3-methoxycarbonyl-2,6-dimethyl-5-(N-(3-(4-phenylpiperidin-1-yl)propyl)carboxamido)pyridine] | 191 to 192 °C |  | Ki (L-type calcium channel; [1]): 10 µM
16 | CCC1=C(C(N)=O)C(c2ccc([N+](=O)[O-])cc2)C(C(=O)NCCCN2CCC(c3ccccc3)(c3ccccc3)CC2)=C(CCCCN)N1 (centres unmarked) [Example 171, 2-(4-Aminobutyl)-5-carboxamido-6-ethyl-1,4-dihydro-4-(4-nitrophenyl)-3-{N-[3-(4,4-diphenylpiperidin-1-yl)propyl]}carboxamidopyridine] | 85 to 89 °C |  | Ki (L-type calcium channel; [2]): 18.6 µM
